Results published in paper doi:10.1101/2022.09.09.507370v4 (biorxiv, 2022).

Assays:
Type in all cases: biochemical
Settings in all cases: PS-liposome-stimulated (5.0 μM PS-liposomes), 20 nM enzyme, GTP, pH 7.4
[1] = tested on: Dyn2-His6
[2] = tested on: Dyn1-His6
[3] = tested on: Dyn3-His6

IC50 [1]: 9.2 ± 2.5 µM
IC50 [2]: 8.1 ± 3.7 µM
IC50 [3]: 7.8 ± 3 µM
SMILES: CCCCCCCCCCCCCC[N+](C)(C)C [MiTMAB]
